According to publication PMC12289921 (Nature Communications, 2025):
pEC50: −log10 of the molar value.

Target: PPIL4 with GFP-CRBN-DDB1∆B (Homo sapiens, UniProt Q8WUA2+Q96SW2)
Test: TR-FRET ternary complex formation
Type: binding

PPIL4 with GFP-CRBN-DDB1∆B, sequence (Q96SW2 whole entry): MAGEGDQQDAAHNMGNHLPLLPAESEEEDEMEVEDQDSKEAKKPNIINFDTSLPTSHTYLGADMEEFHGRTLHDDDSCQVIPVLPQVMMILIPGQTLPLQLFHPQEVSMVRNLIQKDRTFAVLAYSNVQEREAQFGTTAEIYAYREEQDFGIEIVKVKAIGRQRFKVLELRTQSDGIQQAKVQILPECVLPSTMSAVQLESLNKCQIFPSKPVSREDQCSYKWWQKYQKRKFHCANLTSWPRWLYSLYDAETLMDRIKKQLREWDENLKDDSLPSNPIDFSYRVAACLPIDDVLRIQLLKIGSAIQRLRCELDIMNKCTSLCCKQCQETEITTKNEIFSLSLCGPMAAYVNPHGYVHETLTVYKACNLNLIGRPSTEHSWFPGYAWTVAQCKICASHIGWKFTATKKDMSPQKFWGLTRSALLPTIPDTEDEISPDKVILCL
PPIL4 with GFP-CRBN-DDB1∆B, sequence (Q8WUA2 whole entry): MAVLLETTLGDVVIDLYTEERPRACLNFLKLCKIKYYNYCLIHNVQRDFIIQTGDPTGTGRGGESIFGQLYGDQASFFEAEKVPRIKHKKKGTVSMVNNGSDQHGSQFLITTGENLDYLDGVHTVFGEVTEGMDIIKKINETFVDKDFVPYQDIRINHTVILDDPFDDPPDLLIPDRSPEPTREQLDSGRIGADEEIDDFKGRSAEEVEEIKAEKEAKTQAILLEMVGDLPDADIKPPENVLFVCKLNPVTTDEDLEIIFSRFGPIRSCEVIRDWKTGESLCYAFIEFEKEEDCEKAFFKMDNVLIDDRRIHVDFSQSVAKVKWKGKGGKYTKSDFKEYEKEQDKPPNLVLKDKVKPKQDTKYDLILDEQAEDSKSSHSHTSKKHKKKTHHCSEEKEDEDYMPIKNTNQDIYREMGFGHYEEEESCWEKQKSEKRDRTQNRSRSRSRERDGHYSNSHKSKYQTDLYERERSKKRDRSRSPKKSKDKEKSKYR
PPIL4 with GFP-CRBN-DDB1∆B, sequence (Q16531 1-395 partner): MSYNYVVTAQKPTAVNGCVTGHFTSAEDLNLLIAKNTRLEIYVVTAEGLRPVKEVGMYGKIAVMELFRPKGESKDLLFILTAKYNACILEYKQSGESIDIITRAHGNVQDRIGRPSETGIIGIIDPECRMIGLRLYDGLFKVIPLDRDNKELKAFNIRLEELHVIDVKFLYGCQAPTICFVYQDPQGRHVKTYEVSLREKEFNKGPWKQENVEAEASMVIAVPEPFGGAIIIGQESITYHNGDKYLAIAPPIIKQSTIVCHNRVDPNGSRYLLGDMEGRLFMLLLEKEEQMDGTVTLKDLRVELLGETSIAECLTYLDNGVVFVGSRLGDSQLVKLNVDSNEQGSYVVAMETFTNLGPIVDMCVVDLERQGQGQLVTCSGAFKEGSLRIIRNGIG
PPIL4 with GFP-CRBN-DDB1∆B, sequence (Q16531 706-1140 partner): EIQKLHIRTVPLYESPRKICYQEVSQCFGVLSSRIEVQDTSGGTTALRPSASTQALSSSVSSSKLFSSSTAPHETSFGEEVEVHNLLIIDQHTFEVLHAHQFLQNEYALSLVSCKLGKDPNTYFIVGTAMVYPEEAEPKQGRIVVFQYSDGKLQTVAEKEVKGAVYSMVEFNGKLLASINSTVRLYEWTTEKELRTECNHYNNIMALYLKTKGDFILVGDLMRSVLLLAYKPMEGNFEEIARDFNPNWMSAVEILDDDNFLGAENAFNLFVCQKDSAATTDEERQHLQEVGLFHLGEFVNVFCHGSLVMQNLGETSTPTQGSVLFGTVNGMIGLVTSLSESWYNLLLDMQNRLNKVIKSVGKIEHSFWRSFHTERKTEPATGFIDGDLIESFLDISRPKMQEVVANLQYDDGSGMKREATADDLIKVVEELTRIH

`COc1cscc1-c1cn([C@H]2CCC(=O)NC2=O)nn1` [FPFT-2216] showed a pEC50 of 5.98.
